Data set [1] has as its system endogenous GLUT4 in primary adipocytes. In words: Insulin-stimulated translocation of endogenous GLUT4 in HBG4 primary adipocytes. In kind it is cell-based, mouse. As to the method: Generating a mouse model for measurement of GLUT4 translocation ex vivo and in-vivo. To enable the validation of identified compounds in a relevant system, a mouse model in which the coding sequence for HiBiT was inserted in the first extracellular loop of endogenous GLUT4 using CRISPR/Cas9 (HBG4 mouse) was prepared. […] GLUT4 was detected in skeletal muscle, white adipose tissue, and brown adipose tissue but not in the brain, spleen, liver, or pancreas, thus, confirming the normal distribution of HiBit-labeled GLUT4 and the ability of this assay to detect endogenous GLUT4 in mouse tissues.
C3 potentiates insulin action in primary adipocytes and in live mice. Using HBG4 mice, insulin stimulated GLUT4 translocation of endogenous GLUT4 was measured in primary skeletal muscle fibers and primary adipocytes. Enhancement of insulin-stimulated translocation of endogenous GLUT4 was also shown in primary adipocytes in the presence of C3. In parallel dishes, increased insulin-stimulated glucose uptake in HBG4 primary adipocyte treated with C3 was found. […] To determine if the HBG4 mouse can be used to measure GLUT4 translocation in vivo, HBG4 mice were pretreated with daily IP injections of vehicle or 50 mg/Kg C3 for 3 days. […] Mice were then anesthetized and placed into an IVIS system to measure luminescence. […] Baseline signal was detected in vehicle and C3 treated HBG4 mice. […]

The subject of data set [2] is GLUT4 translocation in HBG4 mice. Description: In vivo GLUT4 translocation in HBG4 mice (IVIS luminescence). Also noted: species or system mouse. The settings on record: HBG4 mice, daily IP 50 mg/Kg for 3 days, insulin IP. As to the method: C3 potentiates insulin action in primary adipocytes and in live mice. Using HBG4 mice, insulin stimulated GLUT4 translocation of endogenous GLUT4 was measured in primary skeletal muscle fibers and primary adipocytes. Enhancement of insulin-stimulated translocation of endogenous GLUT4 was also shown in primary adipocytes in the presence of C3. In parallel dishes, increased insulin-stimulated glucose uptake in HBG4 primary adipocyte treated with C3 was found. […] To determine if the HBG4 mouse can be used to measure GLUT4 translocation in vivo, HBG4 mice were pretreated with daily IP injections of vehicle or 50 mg/Kg C3 for 3 days. On the day of the experiment, mice were injected with vehicle or insulin IP followed by a subcutaneous injection of LgBiT and substrate around the leg muscles. Mice were then anesthetized and placed into an IVIS system to measure luminescence. […] Baseline signal was detected in vehicle and C3 treated HBG4 mice. […]
DIO HBG4 mice were treated with vehicle or C59 for 2 weeks and injected i.v. with an adenovirus coding for a secreted form of LgBiT (allowing LgBiT production and secretion predominantly by the liver into the circulation) 2 days prior to the experiment. Animal were then injected with saline or insulin 10 minutes before i.v. injection of substrate and luminescence imaging using an IVIS system.

Data set [3] relates to GLUT4 translocation in C2C12 myoblast cell line stably expressing HiBiT-GLUT4 (HBG4). Description: HiBiT (NanoBit) luminescence GLUT4 translocation assay in HBG4 C2C12 cells. In kind it is cell-based, mouse. From the text: An assay was used to identify potentiators of insulin-stimulated GLUT4 translocation. In one embodiment, the assay employs Nanobit technology. This technology is based on the recombination of two complementary fragments, HiBiT and LgBiT, of the Nanoluc luciferase. HiBit was fused to an extracellular region of GLUT4 to allow for the rapid quantitation of its the surface density in live cells by adding the reconibinantly produced complementary fragment LgBiT and the luciferase substrate. Since LgBiT is not membrane permeant, only proteins at the plasma membrane are quantified. To measure GLUT4 translocation, a stable C2C12 myoblast cell line was prepared by expressing a HiBiT-tagged mouse GLUT4. […] The Chembridge Diverset library of 49,600 compounds was screened and 1264 hits were identified. A subset of those hits were selected and retested in the presence and absence of insulin.
Development of a HTS assay for real-time measurement of GLUT4 translocation. To measure GLUT4 translocation in a homogenous and HIS amenable manner, NanoBit technology was used. This technology relies on the rapid recombination of 2 fragments of the Nanoluc luciferase (HiBit and LgBiT) with high affinity for each other. Fragments have no enzymatic activity on their own but generate a bright luminescent signal when recombined. A C2C12 myoblast cell line was prepared that stably expressed HiBiT-GLUT4 (HBG4), in which the small 11 amino acid HiBiT fragment was inserted into the first extracellular loop of GLUT4. A C-terminal mCherry was also added for microscopic detection. The C2C12 line was chosen as an in vitro model because it is derived from skeletal myoblasts and translocate GLUT4 in response to insulin. Detection of plasma membrane density of HBG4 is achieved by adding recombinant LgBit and substrate to live cells. The assay can be conducted as an endpoint where cells are incubated with insulin before measuring luminescence or as a kinetic assay by adding LgBiT and substrate at the beginning of the experiment and monitor real-time insulin-stimulated GLUT4 translocation.
An assay to measure GLUT4 translocation in a homogenous and HIS amenable manner using NanoBit technology was developed. This technology relies on the rapid recombination of 2 fragments of the Nanoiuc luciferase (HiBit and LgBiT) with high affinity for each other. Fragments have no enzymatic activity on their own but generate a bright luminescent signal when recombined. A C2C12 myoblast cell line stably expressing HiBiT-GLUT4 (HBG4), in which the small 11 amino acid HiBiT fragment was inserted into the first extracellular loop of GLUT4 was prepared. A C-terminal mCherry was also added for microscopic detection (FIGS. 1A and B). The C2C12 line was chosen as an in-vitro model because it is derived from skeletal myoblasts and translocates GLUT4 in response to insulin. Detection of plasma membrane density of HBG4 is achieved by adding recombinant LgBit and substrate to live cells (FIG. 1C). The assay can be conducted as a kinetic assay by adding LgBiT and substrate at the beginning of the experiment and monitoring real-time insulin-stimulated GLUT4 translocation (FIGS. 1D and E).
In general terms: The HiBiT peptide binds its large partner to form an active luciferase.

Data set [4] concerns lean mice. In words: Glucose tolerance test in lean mice. In kind it is in vivo, mouse. The settings on record: single injection before GTT. As to the method:
C3 improves glucose tolerance in lean and obese insulin resistant mice. To test whether C3 improves glucose handling, lean mice were injected with vehicle or C3 30 minutes before performing a glucose tolerance test. […] To further determine if C3 can reverse glucose intolerance, WT mice were made insulin-resistant by feeding them a high fat diet (HFD) for a period of 10 weeks. Diet induced obese (DIO) mice were then injected with vehicle or C3 for 2 weeks while remaining on HFD. […] Together those results establish in vivo efficacy of C3 for the treatment of insulin resistance.

In data set [5] the test system is primary adipocytes. Description: Insulin-stimulated glucose uptake in primary adipocytes. The class given is cell-based, mouse. As to the method: C3 potentiates insulin action in primary adipocytes and in live mice. Using HBG4 mice, insulin stimulated GLUT4 translocation of endogenous GLUT4 was measured in primary skeletal muscle fibers and primary adipocytes. Enhancement of insulin-stimulated translocation of endogenous GLUT4 was also shown in primary adipocytes in the presence of C3. In parallel dishes, increased insulin-stimulated glucose uptake in HBG4 primary adipocyte treated with C3 was found. […] To determine if the HBG4 mouse can be used to measure GLUT4 translocation in vivo, HBG4 mice were pretreated with daily IP injections of vehicle or 50 mg/Kg C3 for 3 days. On the day of the experiment, mice were injected with vehicle or insulin IP followed by a subcutaneous injection of LgBiT and substrate around the leg muscles. Mice were then anesthetized and placed into an IVIS system to measure luminescence. […] Baseline signal was detected in vehicle and C3 treated HBG4 mice. […] It also further confirms the insulin-sensitizing activity of C3 in vivo.

The target of data set [6] is T1, PPARg (Homo sapiens, UniProt P37231).
T1 sequence (P37231 1-505): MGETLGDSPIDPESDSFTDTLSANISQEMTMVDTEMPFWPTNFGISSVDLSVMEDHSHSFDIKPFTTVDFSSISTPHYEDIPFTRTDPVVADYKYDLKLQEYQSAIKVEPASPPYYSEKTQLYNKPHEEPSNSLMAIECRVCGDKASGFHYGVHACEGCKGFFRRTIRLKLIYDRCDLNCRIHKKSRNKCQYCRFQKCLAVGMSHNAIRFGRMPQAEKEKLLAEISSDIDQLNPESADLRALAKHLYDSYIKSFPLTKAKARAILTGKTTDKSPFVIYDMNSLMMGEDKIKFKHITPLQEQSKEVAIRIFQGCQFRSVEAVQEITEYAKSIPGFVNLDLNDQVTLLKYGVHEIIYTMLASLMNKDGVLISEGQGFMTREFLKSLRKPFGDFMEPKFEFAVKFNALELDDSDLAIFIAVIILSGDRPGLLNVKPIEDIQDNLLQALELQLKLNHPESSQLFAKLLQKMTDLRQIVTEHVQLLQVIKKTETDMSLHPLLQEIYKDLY
In words: Luminescent PPARg reporter assay in vitro. The class given is cell-based. The text has this:
(§1) C3 is not liver toxic and acts through a different mechanism than TZDs. […] Deleterious side effect or TZDs are due to their agonism of PPARg.
In general terms: Reporter assays use an easily measured gene product as a stand-in for the process of interest.

In data set [7] the test system is liver. Description: Liver toxicity markers and liver triglyceride in treated mice. In kind it is in vivo, mouse.
Description: as §1

The subject of data set [8] is diet-induced obese (DIO) mice. In words: Glucose tolerance, fasting glucose and insulin in diet-induced obese (DIO) insulin-resistant mice. The class given is in vivo, mouse. As to the method: To test whether C3 improves glucose handling, WT mice were made insulin-resistant by feeding them a high fat diet (HFD) for a period of 10 weeks. After 10 weeks, mice were injected with vehicle. C3 (20 mg/kg), or the TZD rosiglitazone (20 mg/kg) for 2 weeks while remaining on the HFD. […] To further test the in vivo efficacy of C3, a glucose tolerance test (GTT) was perfromed.
To test whether C3 improves glucose handling, lean mice were injected with vehicle or C3 30 minutes before performing a glucose tolerance test. […] To further determine if C3 can reverse glucose intolerance, WT mice were made insulin-resistant by feeding them a high fat diet (HFD) for a period of 10 weeks. Diet induced obese (DIO) mice were then injected with vehicle or C3 for 2 weeks while remaining on HFD.

The mark [9] stands for this setting: DIO mice, 2 weeks treatment (20 mg/kg).

Entries after “also recorded” stand apart in the source; their conditions may differ.

`O=C(Nc1ccc(Cl)c(Cl)c1)C12CC3CC(CC(C3)C1)C2` [Compound C3]: the “insulin-stimulated translocation of endogenous GLUT4” value in data set [1] is recorded as “Enhancement”. Also, the “insulin-induced luminescence (GLUT4 translocation) in vivo” value in data set [2] is recorded as “further increased”. The “GLUT4 translocation on its own” value in data set [3] (in the absence of insulin, HBG4 C2C12 cells) is “no effect”. Besides, in data set [3] (in the presence of insulin, WT HBG4 C2C12 cells), the “insulin-stimulated GLUT4 translocation” value is “significantly potentiated; also recorded: enhanced”. Also, the “glucose clearance in glucose tolerance test” value in data set [4] is “drastically improved; also recorded: significantly accelerated”. Moreover, in data set [5], the insulin-stimulated glucose uptake result is reported as “significantly improved; also recorded: increased”. Also, the PPARg agonist activity entry in data set [6] is reported as “did not activate; also recorded: no agonist activity; also recorded: neither C3 nor C59 have PPARγ agonist activity”. Besides, in data set [7] (DIO mice, compared to saline treated mice), the liver triglyceride content result is recorded as “significant decrease”. Besides, in data set [7] (treated mice), the “plasma level of liver enzyme ALT” value is “Neither liver toxicity markers were increased” and the “plasma level of liver enzyme AST” value is listed as “Neither liver toxicity markers were increased”. Moreover, the “glucose handling in glucose tolerance test” value in data set [8] (DIO mice (HFD 10 weeks), injected for 2 weeks (20 mg/kg)) is listed as “drastically improved; also recorded: rapidly cleared glucose; also recorded: very significant improvement”. Further, in data set [8] (DIO mice, 20 mg/kg for 2 weeks, GTT), the “insulin response to the glucose challenge” value was “normal insulin response”. For the same compound, in data set [8] (setting [9]), the fasting blood glucose entry is reported as “significantly decreased” and the fasting plasma insulin result was “significantly decreased”.

Source of the values: patent US20230295088A1, “INSULIN SENSITIZERS FOR THE TREATMENT OF DIABETES MELLITUS” (University of Iowa Research Foundation, priority 2020, published 2023).
